Measurements published in paper PMC11491487 (Nature Communications, 2024).
“And” between values parts separate entries of the source, which are not always exact repeats. Equal values may be shown once.

Tests used:
[1] = test system: diamondback moth (Plutella xylostella); settings: in vivo; cited from earlier work
Sf RyR_I4734M/G4891E = Sf RyR_I4734M/G4891E (Spodoptera frugiperda, UniProt A0A4P8L6R5, G4891E/I4734M); test: cell-based
rRyR1 C4657I = target: T1, rRyR1 C4657I (Oryctolagus cuniculus, UniProt P11716, C4657I); test: time-lapse [Ca2+]ER fluorescence assay, HEK293 cells; type: cell-based, rabbit; settings: n = 3
T1 construct: expressed in transfected cells

rRyR1 = rRyR1 (Oryctolagus cuniculus, UniProt P11716); test: as above; type: cell-based, rabbit
chiRyR [2] = target: T2, chiRyR (Oryctolagus cuniculus, UniProt P11716, C4657I/F4564Y/L4792S/R4563K); test: biochemical; type: biochemical, rabbit
chiRyR-I4657M/G4819E [3] = target: T3, chiRyR-I4657M/G4819E (Oryctolagus cuniculus, UniProt P11716, C4657M/F4564Y/G4819E/L4792S/R4563K); test: biochemical; type: biochemical, rabbit
Sf RyR = Sf RyR (Spodoptera frugiperda, UniProt A0A4P8L6R5); test: time-lapse [Ca2+]ER fluorescence assay, HEK293 cells; type: cell-based
rRyR1 R4563K = target: T4, rRyR1 R4563K (Oryctolagus cuniculus, UniProt P11716, R4563K); test: as above; type: cell-based, rabbit; settings: n = 3
T4 construct: expressed in transfected cells

chiRyR [4] = target: T2, chiRyR; test: cell-based; parameters: species or system rabbit
Spodoptera frugiperda = test system: Spodoptera frugiperda; parameters: method as in PMID 31157506; settings: in vivo; cited from earlier work
rRyR1 L4792S = target: T5, rRyR1 L4792S (Oryctolagus cuniculus, UniProt P11716, L4792S); test: time-lapse [Ca2+]ER fluorescence assay, HEK293 cells; type: cell-based, rabbit; settings: n = 3
T5 construct: expressed in transfected cells

[5] = test system: Drosophila melanogaster RyR M4758I; test: Bioassay of gene-edited Drosophila melanogaster (feeding, mortality after 24 h); type: in vivo; settings: 24 h feeding, n = 30
chiRyR-I4657M/G4819E [6] = target: T3, chiRyR-I4657M/G4819E; test: cell-based; parameters: species or system rabbit
[7] = test system: Drosophila melanogaster RyR G4915E; test: Bioassay of gene-edited Drosophila melanogaster (feeding, mortality after 24 h); type: in vivo; parameters: key to LD50: AA.: All alive

Cc1cc(C(F)(C(F)(F)F)C(F)(F)F)ccc1NC(=O)c1cccc(I)c1C(=O)NC(C)(C)CS(C)(=O)=O [FLU, flubendiamide]
fold decrease in sensitivity [1]: > 200 fold
EC50 (Sf RyR_I4734M/G4891E): > 300 µM
F/F0 (Sf RyR_I4734M/G4891E; FLU 0.1 uM): 0.9354 and 1.022 and 1.001
F/F0 (Sf RyR_I4734M/G4891E; FLU 1 uM): 1.08 and 0.9898 and 1.013
F/F0 (Sf RyR_I4734M/G4891E; FLU 10 uM): 0.9775 and 0.9916 and 0.9858
F/F0 (Sf RyR_I4734M/G4891E; FLU 50 uM): 0.9682 and 0.9415 and 0.9568
F/F0 (Sf RyR_I4734M/G4891E; FLU 100 uM): 0.9687 and 0.9673 and 0.985
F/F0 (Sf RyR_I4734M/G4891E; FLU 150 uM): 1.01 and 0.9761 and 1.006
F/F0 (Sf RyR_I4734M/G4891E; FLU 200 uM): 1.016 and 0.9681 and 1.012
EC50 (rRyR1 C4657I): 8.9 µM
EC50 (rRyR1): 4.5 µM
F/F0 (rRyR1; FLU 0.01 uM): 0.9514 and 0.951 and 0.9574
F/F0 (rRyR1; FLU 0.3 uM): 0.9294 and 0.929 and 0.9697
F/F0 (rRyR1; FLU 1 uM): 0.9591 and 0.9606 and 0.9686
F/F0 (rRyR1; FLU 3 uM): 0.9637 and 0.9616 and 0.9316
F/F0 (rRyR1; FLU 10 uM): 0.9738 and 0.9803 and 0.9687
F/F0 (rRyR1; FLU 30 uM): 0.9272 and 0.9023 and 0.8951
F/F0 (rRyR1; FLU 100 uM): 0.8351 and 0.825 and 0.8009
F/F0 (rRyR1; FLU 150 uM): 0.7879 and 0.7717 and 0.7578
EC50 (chiRyR [2]): 0.004 ± 0.0014 µM
[3H]ryanodine binding (B/Bmax) (chiRyR [2]; FLU 0.010 uM): 0.258 and 0.168 and 0.293 and 0.246
[3H]ryanodine binding (B/Bmax) (chiRyR [2]; FLU 0.100 uM): 0.203 and 0.262 and 0.293 and 0.332
[3H]ryanodine binding (B/Bmax) (chiRyR [2]; FLU 1.000 uM): 0.230 and 0.187 and 0.324
[3H]ryanodine binding (B/Bmax) (chiRyR [2]; FLU 10.000 uM): 0.281 and 0.305 and 0.277 and 0.254
[3H]ryanodine binding (B/Bmax) (chiRyR [2]; FLU 100.000 uM): 0.242 and 0.340 and 0.234 and 0.262
[3H]ryanodine binding (B/Bmax) (chiRyR-I4657M/G4819E [3]; FLU 10.000 uM): 0.017 and 0.021 and 0.023 and 0.012
effect of the double mutation on activity (chiRyR-I4657M/G4819E [3]; [3H]ryanodine binding assay): almost completely abolished
F/F0 (Sf RyR; FLU 1e-5 uM): 0.9517 and 0.959 and 0.9803 and 0.9606 and 0.9626 and 0.9095
F/F0 (Sf RyR; FLU 0.0001 uM): 0.9669 and 0.9979 and 0.9587
F/F0 (Sf RyR; FLU 0.001 uM): 0.9934 and 1.004 and 1.015 and 1.0081 and 0.9724 and 0.9466
F/F0 (Sf RyR; FLU 0.005 uM): 0.9953 and 0.9503 and 0.9362
F/F0 (Sf RyR; FLU 0.01 uM): 0.964 and 0.9628 and 0.9439 and 0.9365 and 0.909 and 0.8287
F/F0 (Sf RyR; FLU 0.1 uM): 0.6874 and 0.7084 and 0.7834 and 0.606 and 0.5494 and 0.4561
F/F0 (Sf RyR; FLU 0.3 uM): 0.3286 and 0.3161 and 0.2878
F/F0 (Sf RyR; FLU 0.5 uM): 0.3948 and 0.4026 and 0.4259 and 0.3563 and 0.3618 and 0.3874
F/F0 (Sf RyR; FLU 1 uM): 0.4531 and 0.5278 and 0.593 and 0.346 and 0.3891 and 0.3741
F/F0 (Sf RyR; FLU 3 uM): 0.282 and 0.3083 and 0.312
F/F0 (Sf RyR; FLU 30 uM): 0.2907 and 0.2708 and 0.2786
F/F0 (Sf RyR; FLU 50 uM): 0.5223 and 0.4644 and 0.4746 and 0.282 and 0.2723 and 0.2725
F/F0 (Sf RyR; FLU 100 uM): 0.3008 and 0.2711 and 0.266
F/F0 (Sf RyR; FLU 150 uM): 0.2772 and 0.2807 and 0.3032
F/F0 (Sf RyR; FLU 200 uM): 0.2827 and 0.3427 and 0.3531
EC50 (Sf RyR; n = 3, read-out: EC50): 0.0593 µM
EC50 (rRyR1 R4563K): 3.9 µM
EC50 (chiRyR [4]): 0.0251 µM
F/F0 (chiRyR [4]; FLU 1e-5 uM): 0.9549 and 0.9506 and 0.9676
F/F0 (chiRyR [4]; FLU 0.0001 uM): 0.9787 and 0.9683 and 0.9464
F/F0 (chiRyR [4]; FLU 0.01 uM): 0.8614 and 0.8526 and 0.8697
F/F0 (chiRyR [4]; FLU 0.1 uM): 0.4361 and 0.3436
F/F0 (chiRyR [4]; FLU 1 uM): 0.3549 and 0.3294 and 0.3747
F/F0 (chiRyR [4]; FLU 10 uM): 0.336 and 0.3416 and 0.3434
F/F0 (chiRyR [4]; FLU 50 uM): 0.3259 and 0.3223 and 0.3318
F/F0 (chiRyR [4]; FLU 100 uM): 0.36 and 0.3376 and 0.3503
fold decreased sensitivity (Spodoptera frugiperda): 5,400 fold
EC50 (rRyR1 L4792S): 0.209 µM
LD50 [5]: 10.4 µM
F/F0 (chiRyR-I4657M/G4819E [6]; FLU 1e-5 uM): 0.9575 and 0.97 and 0.9884
F/F0 (chiRyR-I4657M/G4819E [6]; FLU 0.1 uM): 0.9705 and 0.977 and 1.0074
F/F0 (chiRyR-I4657M/G4819E [6]; FLU 0.5 uM): 0.9668 and 0.9819 and 0.9464
F/F0 (chiRyR-I4657M/G4819E [6]; FLU 1 uM): 0.9823 and 0.9988 and 0.9262
F/F0 (chiRyR-I4657M/G4819E [6]; FLU 10 uM): 0.9522 and 0.929 and 0.9507
F/F0 (chiRyR-I4657M/G4819E [6]; FLU 50 uM): 0.9714 and 0.9397 and 0.895
F/F0 (chiRyR-I4657M/G4819E [6]; FLU 100 uM): 0.9721 and 0.9871 and 0.9807
F/F0 (chiRyR-I4657M/G4819E [6]; FLU 200 uM): 0.9521 and 0.9361 and 0.9719
effect of the double mutation on activity (chiRyR-I4657M/G4819E [6]; time-lapse assay): almost completely abolished
LD50 ([7]; 24 h feeding, n = 30): AA.
lethality ([7]; in vivo): can no longer kill
